The target in one experiment is T1, wild-type CysLT1R (Homo sapiens, UniProt Q9Y271).
T1 construct: expressed in transfected cells; host or cells: HEK293 (ATCC CRL-1573), transient transfection with Lipofectamine 3000
T1 sequence (Q9Y271 1-337): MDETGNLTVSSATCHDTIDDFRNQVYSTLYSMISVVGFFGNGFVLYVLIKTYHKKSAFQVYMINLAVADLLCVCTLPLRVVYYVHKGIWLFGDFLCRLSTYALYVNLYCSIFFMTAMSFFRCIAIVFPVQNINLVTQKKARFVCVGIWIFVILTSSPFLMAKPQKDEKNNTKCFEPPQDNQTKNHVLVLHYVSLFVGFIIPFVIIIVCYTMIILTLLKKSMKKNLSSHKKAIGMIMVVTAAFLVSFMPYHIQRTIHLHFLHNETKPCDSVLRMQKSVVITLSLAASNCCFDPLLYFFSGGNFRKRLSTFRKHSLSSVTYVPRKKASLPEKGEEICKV
Nature of the experiment: IP1 production assay, antagonist mode, co-stimulation with EC80 LTD4. Conditions: for inhibition at 30 µM: HEK293, compound 30 µM, LTD4 at EC80, HEK293, wild-type CysLT1R, read-out: inhibition of LTD4-induced IP1 production, single-concentration screen; for Emax: HEK293, read-out: CysLT1R (LTD4) % Max Inhibition ± SEM. Type of experiment: cell-based. How it is done:
(§1) For this assay, we used the Cisbio IP-One kit as previously described. […] At 48 h post-transfection, the media was removed and the cells were washed with fresh Hank’s Balanced Salt Solution (HBSS). […] After compound stimulation, the cells were incubated for 1 h at 37 °C and stimulated with IP1-D2 and Ab-Crypt reagents in Lysis Buffer. The cells were then incubated at room temperature for an additional hour. […] Normalized data were plotted using either the three-parameter or four-parameter EC50/IC50 fits of GraphPad Prism 8 (San Diego). […] Data represent the means ± SEM of at least three independent experiments performed in quadruplicate.

The next experiment deals with T2, wild-type CysLT2R (Homo sapiens, UniProt Q9NS75).
T2 construct: expressed in transfected cells; host or cells: HEK293 (ATCC CRL-1573), transient transfection with Lipofectamine 3000
T2 sequence (Q9NS75 1-346): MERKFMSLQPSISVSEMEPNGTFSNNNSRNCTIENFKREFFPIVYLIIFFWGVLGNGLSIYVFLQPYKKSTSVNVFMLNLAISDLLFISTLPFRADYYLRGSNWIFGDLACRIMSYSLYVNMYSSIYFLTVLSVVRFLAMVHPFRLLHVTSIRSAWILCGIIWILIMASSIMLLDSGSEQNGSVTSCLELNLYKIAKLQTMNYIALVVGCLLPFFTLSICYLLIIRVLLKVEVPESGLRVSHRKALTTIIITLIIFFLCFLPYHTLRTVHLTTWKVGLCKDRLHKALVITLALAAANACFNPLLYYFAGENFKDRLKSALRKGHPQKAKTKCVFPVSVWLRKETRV
The experiment is described as above. The format is cell-based. As to conditions: for inhibition at 30 µM: HEK293, compound 30 µM, LTD4 at EC80, HEK293, wild-type CysLT2R, read-out: inhibition of LTD4-induced IP1 production, single-concentration screen; for Emax: HEK293, read-out: CysLT2R (LTD4) % Max Inhibition ± SEM. As to the method: as §1

With `NC(=O)c1ccc(NC(=O)CCCCC2SCC3NC(=O)NC32)cc1` (stereo not shown) [BRI-12301], the values for the remaining activity at 30 µM on wild-type CysLT1R and at wild-type CysLT2R were 91.5% and 88.1%, respectively.
On the same counts, the results for `O=C(O)CCC1CCCCN1C(=O)C1CCc2ncncc2C1` (stereo not shown) [BRI-12302] are 87.4% and 70%.
In the same order, the values of `Cn1cc(S(=O)(=O)N[C@@H]2CC[C@H](C(=O)O)C2)cc1C(N)=O` [BRI-12303] are 77.9% and 86.5%.
In the same order, the values of `O=C(O)c1c(F)cccc1NS(=O)(=O)N1CCc2ccccc2C1` [BRI-12304] are 83.8% and 106%.
As for `O=C(O)CC(NC(=O)Cn1ncc2ccccc21)c1ccc(F)cc1` (stereo not shown) [BRI-12305], the remaining activity at 30 µM on wild-type CysLT1R turned out to be 93.1%; at wild-type CysLT2R it was 109%.
On to `C[C@@H]1C[C@H](C(=O)Nc2cccc(NC(=O)c3cccs3)c2)O[C@H]1C(=O)O` [BRI-12306], for which the remaining activity at 30 µM on wild-type CysLT1R turned out to be 81.2%; on wild-type CysLT2R, 112%.
In the same order, the values of `O=C(Nc1ccccc1C(=O)N1CCN2C(=O)NC(=O)C2C1)c1cccs1` (stereo not shown) [BRI-12307] are 84.6% and 110%.
As to `CC1CC(C(=O)O)CN(C(=O)Nc2cccc(NC(=O)c3ccccc3)c2)C1` (stereo not shown) [BRI-12308], the remaining activity at 30 µM on wild-type CysLT1R was found to be 95.6%; on wild-type CysLT2R, 101%.
In the same order, the values of `O=C(O)[C@@H]1CC[C@H](C(=O)Nc2cccc(-c3nc4ccccc4[nH]3)c2)C1` [BRI-12309] are 87.8% and 87.4%.
In the same order, the values of `O=C(O)CCC1CCCCN1C(=O)Cc1c[nH]c2cc(F)ccc12` (stereo not shown) [BRI-12310] are 77.3% and 91.6%.
On to `O=C(O)CC(NC(=O)c1ccc(Cl)c(N2CCNC2=O)c1)c1ccccc1` (stereo not shown) [BRI-12311], for which the remaining activity at 30 µM was determined as 77.5% on wild-type CysLT1R and 91% at wild-type CysLT2R.
On the same counts, the results for `O=C(Nc1ccc2c(c1)COC2)N1CCCCC1c1cn[nH]c1` (stereo not shown) [BRI-12312] are 77.4% and 87.2%.
On the same counts, the results for `O=C(O)CNC(=O)Cc1ccc(NC(=O)c2n[nH]c3ccccc23)cc1` [BRI-12313] are 88.6% and 110%.
With `O=C(O)CSc1nc2ccccc2c2nc(CCc3ccccc3)nn12` [BRI-12314], the remaining activity at 30 µM on wild-type CysLT1R is 66.7%; on wild-type CysLT2R it was 96.9%.
In the same order, the values of `COc1ccc(C2=NN(C(=O)CCC(=O)O)C(c3cccs3)C2)c(O)c1` (stereo not shown) [BRI-12316] are 91% and 90%.
In the same order, the values of `O=C(O)CNC(=O)c1ccc(NC(=O)c2cc3ccccn3c2)cc1` [BRI-12317] are 86.4% and 89.2%.
For the compound `CC(=O)Nc1ccccc1OS(=O)(=O)c1cccc2cc(C)cnc12` [BRI-12318], the remaining activity at 30 µM worked out at 74.1% at wild-type CysLT1R and 88.2% at wild-type CysLT2R.
In the same order, the values of `CC(=O)c1ccc(OCC(=O)NC(CC(=O)O)c2cccs2)cc1` (stereo not shown) [BRI-12319] are 76.4% and 78.4%.
As for `O=C(O)CCN(CC1CCCO1)C(=O)c1cc(-c2ccccc2Cl)[nH]n1` (stereo not shown) [BRI-12320], the remaining activity at 30 µM stood at 81.4% at wild-type CysLT1R and 90.5% on wild-type CysLT2R.
`O=C(NC1CCCC1)c1ccc(NC(=O)C2C3C=CC(C3)C2C(=O)O)cc1` (stereo not shown) [BRI-12321]: the remaining activity at 30 µM at wild-type CysLT1R came out at 87.8%; at wild-type CysLT2R, 95.1%.
In the same order, the values of `CNC(=O)c1cccc(NC(=O)CN2c3cccc4cccc(c34)S2(=O)=O)c1` [BRI-12322] are 69.8% and 79.1%.
Take `O=C(O)CNC(=O)c1ccc(NS(=O)(=O)c2cccs2)cc1` [BRI-12323]: the remaining activity at 30 µM on wild-type CysLT1R was determined as 80.5%; on wild-type CysLT2R, 100%.
`CC1=C(C(=O)Nc2ccccc2)C(c2ccncc2)n2nc(CCCO)nc2N1` (stereo not shown) [BRI-12325]: the values for the remaining activity at 30 µM at wild-type CysLT1R and at wild-type CysLT2R were 76.1% and 79.3%, respectively.
In the same order, the values of `C[S+]([O-])Cc1cccc(NC(=O)CC2(C(=O)O)Cc3ccccc3C2)c1` (stereo not shown) [BRI-12326] are 79.3% and 71%.
In the same order, the values of `Cn1cc(C(N)=O)c(NC(=O)CCc2cccc(C(F)(F)F)c2)n1` [BRI-12327] are 68.5% and 73.4%.
In the case of `CC1(c2ccc(C(=O)Nc3nc(-c4ccccc4)cs3)cc2)NC(=O)NC1=O` (stereo not shown) [BRI-12328], on wild-type CysLT1R, the remaining activity at 30 µM was determined as 21%, the inhibition at 30 µM is at least 50% and the Emax was found to be 33 ± 8%. Moreover, at wild-type CysLT2R, the remaining activity at 30 µM was found to be 38.1%, the inhibition at 30 µM was at least 50% and the Emax was found to be 5 ± 7%.
For the compound `O=C(O)CNC(=O)c1ccc(NC(=O)C2Cc3cc(F)ccc3O2)cc1` (stereo not shown) [BRI-12329], the values for the remaining activity at 30 µM at wild-type CysLT1R and on wild-type CysLT2R were 88.8% and 87.8%, respectively.
On the same counts, the results for `NC(=O)COc1cccc(C(=O)NC(CC(=O)O)c2ccc(Cl)c(F)c2)c1` (stereo not shown) [BRI-12330] are 72.1% and 93.4%.
With `CN(CC(=O)Nc1ccc2[nH]ncc2c1)C1=NS(=O)(=O)c2ccccc21` [BRI-12331], the remaining activity at 30 µM came to 84.3% at wild-type CysLT1R and 92.8% at wild-type CysLT2R.
On the same counts, the results for `O=C(c1ccc2nnnn2c1)N1CC=C(c2c[nH]c3ccccc23)CC1` [BRI-12332] are 96.7% and 91.2%.
On the same counts, the results for `Cc1cccc(-n2nnc(C(=O)Nc3ccc4c(c3)NC(=O)CO4)c2C)c1` [BRI-12333] are 77.5% and 70.5%.
As for `Cc1cc(O)c(C(=O)O)cc1S(=O)(=O)Nc1ccc(N2CCCC2)c(F)c1` [BRI-12334], on wild-type CysLT1R, the remaining activity at 30 µM is 47.3%, the inhibition at 30 µM is at least 50% and the Emax came out at 46 ± 15%. In addition, at wild-type CysLT2R, the remaining activity at 30 µM is 57.2%, the inhibition at 30 µM was at least 50% and the Emax came to 21 ± 8%.
As for `O=C1COc2ccc(C(=O)Cn3cnc4sc5c(c4c3=O)CCC5)cc2N1` [BRI-12335], the remaining activity at 30 µM at wild-type CysLT1R is 73.8%; on wild-type CysLT2R, 74.8%.
`CC1CC1C(=O)NCCC(=O)Nc1cccc(Cl)c1-n1cncn1` (stereo not shown) [BRI-12336]: the remaining activity at 30 µM was 77.3% on wild-type CysLT1R and 92.1% on wild-type CysLT2R.
On the same counts, the results for `Cn1c(Cn2cc(-c3nnco3)ccc2=O)nc2cc(Cl)ccc21` [BRI-12337] are 72% and 91.3%.
On the same counts, the results for `O=C1CCc2cc(NC(=O)C(=O)NCCc3ccc4c(c3)OCO4)ccc2N1` [BRI-12338] are 66.4% and 95.5%.
`CC(C)c1c(C(=O)Nc2ccc3[nH]c(=O)[nH]c3c2)cnn1-c1ccccn1` [BRI-12339]: the remaining activity at 30 µM at wild-type CysLT1R was 82%; at wild-type CysLT2R it was 99.8%.
As for `O=C(O)COc1ccc(C=Cc2ccc3cccc(O)c3n2)cc1` [BRI-12340], the remaining activity at 30 µM on wild-type CysLT1R came out at 70.2%; at wild-type CysLT2R it was 78.9%.
In the same order, the values of `O=C(Cn1c(=O)[nH]c(=O)c2ccccc21)N1CCc2[nH]c3ccc(F)cc3c2C1` [BRI-12341] are 69.5% and 61.4%.
As for `CC(Sc1n[nH]c(=O)n1C1CC1)C(=O)c1c[nH]c2ccccc12` (stereo not shown) [BRI-12342], the values for the remaining activity at 30 µM on wild-type CysLT1R and at wild-type CysLT2R were 71.7% and 81.2%, respectively.
On the same counts, the results for `CC(=O)c1cc2c(cc1NC(=O)COc1ccc(Cl)cc1C(N)=O)OCO2` [BRI-12343] are 73.7% and 88.9%.
On the same counts, the results for `O=C(O)c1csc(S(=O)(=O)Nc2cccc(NC(=O)c3ccco3)c2)c1` [BRI-12344] are 72.5% and 96.8%.
In the same order, the values of `O=C(CC1SC(c2cc3ccccc3oc2=O)=NC1=O)Nc1ccc(F)cc1` (stereo not shown) [BRI-12345] are 75.3% and 101%.

The values above are taken from paper PMC7761830, “Structure-Based Virtual Screening of Ultra-Large Library Yields Potent Antagonists for a Lipid GPCR” (Biomolecules, 2020).
